In brackets after ≈: the same amount, converted by molar mass. Where two headings read alike, the source gives them in different places.
Assays:
[1] = tested on: HCT116 p53+/+ colon cancer cells; assay: MTT cytotoxicity assay, HCT116 p53+/+; assay type: cell-based; conditions: read-out: IC50 HCT116 p53+/+ colon cancer cells
Method: (§1) Cell cultures and cytotoxicity assays have been used. Celastrol was dissolved in DMSO at a final concentration of 100 mmol/L and stored at −20° C. Cytotoxicity was assessed using the 3-(4,5-dimethylthiazol-2-yl)-2,5-diphenyltetrazolium bromide assay. 4000 cells from HCT116 p53^+/+ or p53^−/− colon cancer cells and DLD-1 Bax-Bak^+/+ or Bax-Bak^−/− colon cancer cells were seeded on 96-well plates per well. […] Subsequently, 10 μL of MTT reagents were added to each well and incubated at 37° C. for 4 hours followed by the addition of 100 μL solubilization buffer (10% SDS in 0.01 mol/L HCl) and overnight incubation. […] The percentage of cell viability was calculated using the following formula: Cell viability (%)=Cells number treated/Cells number DMSO control×100. Data were obtained from three independent experiments.

[2] = tested on: DLD-1 Bax-Bak-/- colon cancer cells; assay: MTT cytotoxicity assay, DLD-1 Bax-Bak-/-; assay type: cell-based; conditions: for Resistant Factor: IC50 DLD-1 Bax-Bak-/- divided by IC50 DLD-1 Bax-Bak+/+; for IC50: Homo sapiens, DLD-1, 72 h, read-out: IC50 DLD-1 Bax-Bak-/- colon cancer cells
Method: as §1

[3] = tested on: HCT116 p53-/- colon cancer cells; assay: MTT cytotoxicity assay, HCT116 p53-/-; assay type: cell-based; conditions: for Resistant Factor: IC50 HCT116 p53-/- divided by IC50 HCT116 p53+/+; for IC50: read-out: IC50 HCT116 p53-/- colon cancer cells
Method: as §1

[4] = tested on: SGC-7901 (Gastric) cisplatin resistant cancer cells; assay: MTT cytotoxicity assay, SGC-7901 cisplatin resistant; assay type: cell-based, human
Method: (§2) Cell cultures and cytotoxicity assays have been used. Celastrol was dissolved in DMSO at a final concentration of 100 mmol/L and stored at −20° C. Cytotoxicity was assessed using the 3-(4,5-dimethylthiazol-2-yl)-2,5-diphenyltetrazolium bromide assay. 4000 cells from A2780 cisplatin sensitive/resistant ovarian cancer cells or SGC-7901 cisplatin sensitive/resistant gastric cancer cells were seeded on 96-well plates per well. After overnight pre-incubation, the cells were exposed to different concentrations of celastrol (0.039-100 μmol/L) or cisplatin for 3 days. Subsequently, 10 μL of MTT reagents were added to each well and incubated at 37° C. for 4 hours followed by the addition of 100 μL solubilization buffer (10% SDS in 0.01 mol/L HCl) and overnight incubation. Absorbance at 585 nm was determined from each well the next day. The percentage of cell viability was calculated using the following formula: Cell viability (%)=Cells number treated/Cells number DMSO control×100. Data were obtained from three independent experiments.

[5] = tested on: A2780 (Ovary) cisplatin sensitive cancer cells; assay: MTT cytotoxicity assay, A2780 cisplatin sensitive; assay type: cell-based, human; conditions: MTT, 3 days; read-out: IC50 A2780 (Ovary) (Cisplatin sensitive)
Method: as §2

[6] = tested on: DLD-1 Bax-Bak+/+ colon cancer cells; assay: MTT cytotoxicity assay, DLD-1 Bax-Bak+/+; assay type: cell-based; conditions: MTT, 3 days; for IC50: Homo sapiens, DLD-1, 72 h, read-out: IC50 DLD-1 Bax-Bak+/+ colon cancer cells
Method: as §1

[7] = tested on: A2780 (Ovary) cisplatin resistant cancer cells; assay: MTT cytotoxicity assay, A2780 cisplatin resistant; assay type: cell-based, human
Method: as §2

[8] = tested on: SGC-7901 (Gastric) cisplatin sensitive cancer cells; assay: MTT cytotoxicity assay, SGC-7901 cisplatin sensitive; assay type: cell-based, human; conditions: MTT, 3 days; read-out: IC50 SGC-7901 (Gastric) (Cisplatin sensitive)
Method: as §2

[9] = tested on: MCF-7 (Breast) doxorubicin resistant cancer cells; assay: MTT cytotoxicity assay, MCF-7 doxorubicin resistant; assay type: cell-based, human
Method: as §2, with “MCF-7 doxorubicin” for “A2780 cisplatin”, “breast” for “ovarian”, “CEM doxorubicin” for “SGC-7901 cisplatin”, “leukemia” for “gastric cancer”, “doxorubicin” for “cisplatin”

[10] = tested on: MCF-7 (Breast) taxol sensitive cancer cells; assay: MTT cytotoxicity assay, MCF-7 taxol sensitive; assay type: cell-based; conditions: Homo sapiens, MCF7, 72 h; MTT, 3 days; read-out: IC50 MCF-7 (Breast) (Taxol sensitive)
Method: (§3) Cell cultures and cytotoxicity assays have been used. Celastrol was dissolved in DMSO at a final concentration of 100 mmol/L and stored at −20° C. Cytotoxicity was assessed using the 3-(4,5-dimethylthiazol-2-yl)-2,5-diphenyltetrazolium bromide assay. 4000 cells from A549 (lung), A2780 (ovary), HCT-8 (colon) and MCF-7 (breast) cancer cells were seeded on 96-well plates per well. After overnight pre-incubation, the cells were exposed to different concentrations of celastrol (0.039-100 μmol/L) or taxol for 3 days. Subsequently, 10 μL of MTT reagents was added to each well and incubated at 37° C. for 4 hours followed by the addition of 100 μL solubilization buffer (10% SDS in 0.01 mol/L HCl) and overnight incubation. Absorbance at 585 nm was determined from each well the next day. The percentage of cell viability was calculated using the following formula: Cell viability (%)=Cells number treated/Cells number DMSO control×100. Data were obtained from three independent experiments.

[11] = tested on: HCT-8 (Colon) taxol sensitive cancer cells; assay: MTT cytotoxicity assay, HCT-8 taxol sensitive; assay type: cell-based; conditions: Homo sapiens, HCT-8, 72 h; MTT, 3 days; read-out: IC50 HCT-8 (Colon) (Taxol sensitive)
Method: as §3

[12] = tested on: A2780 (Ovary) taxol resistant cancer cells; assay: MTT cytotoxicity assay, A2780 taxol resistant; assay type: cell-based, human; conditions: for Resistant Factor: A2780 taxol resistant versus taxol sensitive
Method: as §3

[13] = tested on: HCT-8 (Colon) taxol resistant cancer cells; assay: MTT cytotoxicity assay, HCT-8 taxol resistant; assay type: cell-based, human; conditions: for Resistant Factor: HCT-8 taxol resistant versus taxol sensitive
Method: as §3

[14] = tested on: A549 (Lung) taxol resistant cancer cells; assay: MTT cytotoxicity assay, A549 taxol resistant; assay type: cell-based, human; conditions: for Resistant Factor: A549 taxol resistant versus taxol sensitive
Method: as §3

[15] = tested on: A549 (Lung) taxol sensitive cancer cells; assay: MTT cytotoxicity assay, A549 taxol sensitive; assay type: cell-based; conditions: Homo sapiens, A549, 72 h; MTT, 3 days; read-out: IC50 A549 (Lung) (Taxol sensitive)
Method: as §3

[16] = tested on: MCF-7 (Breast) taxol resistant cancer cells; assay: MTT cytotoxicity assay, MCF-7 taxol resistant; assay type: cell-based, human
Method: as §3

[17] = tested on: A2780 (Ovary) taxol sensitive cancer cells; assay: MTT cytotoxicity assay, A2780 taxol sensitive; assay type: cell-based; conditions: Homo sapiens, A2780, 72 h; MTT, 3 days; read-out: IC50 A2780 (Ovary) (Taxol sensitive)
Method: as §3

[18] = tested on: A549 taxol-resistant lung cancer cells; assay: MTT cytotoxicity of taxol in presence or absence of celastrol; assay type: cell-based; conditions: Homo sapiens, A549, 72 h, 3 days
Method: Cell cultures and cytotoxicity assays have been carried out. Celastrol was dissolved in DMSO at a final concentration of 100 mmol/L and stored at −20° C. Cytotoxicity was assessed using the 3-(4,5-dimethylthiazol-2-yl)-2,5-diphenyltetrazolium bromide assay. 4000 cells from A549 taxol-resistant lung cancer cells were seeded on 96-well plates per well. After overnight pre-incubation, the cells were exposed to different concentrations of taxol (0.019-100 μmol/L) in the presence or absence of celastrol (0.5 μM) for 3 days. Subsequently, 10 μL of MTT reagents was added to each well and incubated at 37° C. for 4 hours followed by the addition of 100 μL solubilization buffer (10% SDS in 0.01 mol/L HCl) and overnight incubation. […] The percentage of cell viability was calculated using the following formula: Cell viability (%)=Cells number treated/Cells number DMSO control×100. Data were obtained from three independent experiments.

P-gp = P-gp (Homo sapiens, UniProt P08183); assay: Rho123 efflux assay in A549 taxol-resistant lung cancer cells (flow cytometry); conditions: 0.5 μM celastrol, pristimerin or dihydrocelastrol, or 10 μM verapamil, 24 h, then Rho123 1 h
Method: A549 taxol-resistant lung cancer cells were seeded in 6 well-plates at a final concentration of 2×10^5 cells per well and cultured for 24 h at 37° C. in an atmosphere containing 5% CO2. […] Subsequently, 5 mg/mL Rho123 was added to each well and the wells were incubated for another 1 h at 37° C. At the end of the incubation, the accumulation of Rho123 was stopped by washing the cells five times with ice-cold PBS. After cell centrifugation, cell pellets were resuspended in 400 μL PBS. […] All data acquisition and analyses were performed with CellQuest (BD Biosciences, San Jose, Calif., USA) in triplicate in three independent experiments, and the results were shown as the mean of fluorescence intensity.
A549 taxol-resistant lung cancer cells were seeded in 6 well-plates at a final concentration of 2×10^5 cells per well and cultured for 24 h at 37° C. in an atmosphere containing 5% CO2. […] All data acquisition and analyses were performed with CellQuest (BD Biosciences, San Jose, Calif., USA) in triplicate in three independent experiments, and the results were shown as the mean of fluorescence intensity.

[19] = Homo sapiens, HCT-116, 72 h, MTT, 3 days

P-gp, sequence (P08183 whole entry): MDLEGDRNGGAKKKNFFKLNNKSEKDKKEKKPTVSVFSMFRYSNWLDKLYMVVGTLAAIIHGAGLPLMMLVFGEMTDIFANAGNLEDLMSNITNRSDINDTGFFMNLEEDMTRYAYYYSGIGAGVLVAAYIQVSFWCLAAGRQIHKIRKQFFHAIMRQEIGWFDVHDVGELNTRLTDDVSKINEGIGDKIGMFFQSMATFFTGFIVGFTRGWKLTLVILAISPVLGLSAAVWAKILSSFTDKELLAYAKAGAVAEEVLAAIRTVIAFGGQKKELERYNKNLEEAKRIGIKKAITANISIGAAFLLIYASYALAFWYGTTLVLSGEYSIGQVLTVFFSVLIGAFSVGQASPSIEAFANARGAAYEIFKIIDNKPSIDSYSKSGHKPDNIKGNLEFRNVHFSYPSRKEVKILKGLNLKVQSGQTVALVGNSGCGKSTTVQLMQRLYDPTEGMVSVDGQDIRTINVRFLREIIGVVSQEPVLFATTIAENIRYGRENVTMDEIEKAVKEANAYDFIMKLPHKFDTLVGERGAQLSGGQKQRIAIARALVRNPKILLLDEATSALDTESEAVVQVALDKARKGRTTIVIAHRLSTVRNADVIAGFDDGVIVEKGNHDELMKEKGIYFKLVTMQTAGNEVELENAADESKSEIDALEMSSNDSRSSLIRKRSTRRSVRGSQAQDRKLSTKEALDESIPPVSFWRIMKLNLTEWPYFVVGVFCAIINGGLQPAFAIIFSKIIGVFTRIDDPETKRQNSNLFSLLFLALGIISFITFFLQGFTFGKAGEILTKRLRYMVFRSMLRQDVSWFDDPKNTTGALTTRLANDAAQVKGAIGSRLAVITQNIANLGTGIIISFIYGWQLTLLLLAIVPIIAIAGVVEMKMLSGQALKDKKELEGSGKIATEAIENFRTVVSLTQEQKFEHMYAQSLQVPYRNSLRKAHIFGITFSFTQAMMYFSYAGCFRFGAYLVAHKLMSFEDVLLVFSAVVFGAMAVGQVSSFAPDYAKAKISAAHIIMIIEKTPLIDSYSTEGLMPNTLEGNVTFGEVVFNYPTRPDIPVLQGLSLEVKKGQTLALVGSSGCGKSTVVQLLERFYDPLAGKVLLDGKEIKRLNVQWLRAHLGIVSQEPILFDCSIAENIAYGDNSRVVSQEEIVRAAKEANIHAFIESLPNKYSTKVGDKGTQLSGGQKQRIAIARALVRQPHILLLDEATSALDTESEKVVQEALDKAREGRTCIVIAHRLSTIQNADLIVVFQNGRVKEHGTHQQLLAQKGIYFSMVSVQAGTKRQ

N.N.[Cl][Pt][Cl] [Cisplatin, cisplatin]
IC50 ([1]; MTT, 3 days): 190 nM | Resistant Factor [2]: 1.84 | IC50 DLD-1 Bax-Bak-/- colon cancer cells ([2]; MTT, 3 days): 3.678 µg/mL | Resistant Factor [3]: 92.37 | IC50 ([3]; MTT, 3 days): 17600 nM | IC50 ([4]; MTT, 3 days, read-out: IC50 SGC-7901 (Gastric) (Cisplatin resistant)): 6190 nM | Resistant Factor ([4]; SGC-7901 cisplatin resistant versus cisplatin sensitive): 4.9 | IC50 [5]: 1240 nM | IC50 DLD-1 Bax-Bak+/+ colon cancer cells [6]: 1.994 µg/mL | Resistant Factor ([7]; A2780 cisplatin resistant versus cisplatin sensitive): 14.92 | IC50 ([7]; MTT, 3 days, read-out: IC50 A2780 (Ovary) (Cisplatin resistant)): 18500 nM | IC50 [8]: 1260 nM

COc1cccc2c1C(=O)c1c(O)c3c(c(O)c1C2=O)C[C@@](O)(C(=O)CO)C[C@@H]3O[C@H]1C[C@H](N)[C@H](O)[C@H](C)O1 [Doxorubicin, doxorubicin]
IC50 ([9]; Homo sapiens, MCF7, 72 h, MTT, 3 days, read-out: IC50 MCF-7 (Breast) (Doxorubicin resistant)): 10 µg/mL (≈ 18.4 µM) | Resistant Factor ([9]; MCF-7 doxorubicin resistant versus doxorubicin sensitive): 21.6 | IC50 ([1]; Homo sapiens, HCT-116, 72 h): 520 nM | IC50 ([2]; MTT, 3 days): 0.539 µg/mL | Resistant Factor [2]: 10.31 | IC50 ([3]; Homo sapiens, HCT-116, 72 h): 10200 nM | Resistant Factor [3]: 19.52 | IC50 [6]: 0.0523 µg/mL

COc1cc([C@@H]2c3cc4c(cc3[C@@H](O[C@@H]3O[C@@H]5CO[C@@H](C)O[C@H]5[C@H](O)[C@H]3O)[C@H]3COC(=O)[C@H]23)OCO4)cc(OC)c1O [Etoposide, etoposide]
IC50 [1, 19]: 940 nM | IC50 ([2]; MTT, 3 days): 40400 nM | Resistant Factor [2]: 17.12 | IC50 [3, 19]: 10600 nM | Resistant Factor [3]: 11.28 | IC50 [6]: 2360 nM

CN[C@@H]1C[C@H]2O[C@@](C)([C@@H]1OC)n1c3ccccc3c3c4c(c5c6ccccc6n2c5c31)C(=O)NC4 [Staurosporine, staurosporine]
Resistant Factor [2]: 3.34 | IC50 [3, 19]: 48 nM | Resistant Factor [3]: 13.01

CC(=O)O[C@H]1C(=O)[C@@]2(C)[C@H]([C@H](OC(=O)c3ccccc3)[C@]3(O)C[C@H](OC(=O)[C@H](O)[C@@H](NC(=O)c4ccccc4)c4ccccc4)C(C)=C1C3(C)C)[C@]1(OC(C)=O)CO[C@@H]1C[C@@H]2O [Taxol, paclitaxel (taxol)]
IC50 [10]: < 1 nM | IC50 [11]: < 1 nM | Resistant Factor [12]: >62000 | Resistant Factor ([12]; listed as taxol): over 62000 | IC50 ([12]; Homo sapiens, A2780, 72 h, MTT, 3 days, read-out: IC50 A2780 (Ovary) (Taxol resistant)): 62000 nM | Resistant Factor [13]: >31000 | Resistant Factor ([13]; listed as taxol): 31000 | IC50 ([13]; Homo sapiens, HCT-8, 72 h, MTT, 3 days, read-out: IC50 HCT-8 (Colon) (Taxol resistant)): 32000 nM | IC50 [1, 19]: 19.5 nM | IC50 ([2]; MTT, 3 days): > 100 nM | Resistant Factor [2]: >23.2 | IC50 [3, 19]: 251 nM | Resistant Factor [3]: 12.87 | Resistant Factor [14]: 894.12 | Resistant Factor ([14]; listed as taxol): over 894 | IC50 ([14]; Homo sapiens, A549, 72 h, MTT, 3 days, read-out: IC50 A549 (Lung) (Taxol resistant)): 30400 nM | IC50 [15]: 34 nM | IC50 ([16]; Homo sapiens, MCF7, 72 h, MTT, 3 days, read-out: IC50 MCF-7 (Breast) (Taxol resistant)): 5000 nM | Resistant Factor ([16]; MCF-7 taxol resistant versus taxol sensitive): 5000 | IC50 [17]: < 1 nM | IC50 ([18]; co-treated with 0.5 μM celastrol, read-out: mean IC50 of taxol in the presence of celastrol): 2170 nM | IC50 ([18]; taxol alone, read-out: mean IC50 of taxol): 36000 nM | IC50 [6]: 4.31 nM

COC(=O)[C@]1(C)CC[C@]2(C)CC[C@]3(C)C4=CC=C5C(=CC(=O)C(O)=C5C)[C@]4(C)CC[C@@]3(C)[C@@H]2C1 [pristimerin]
P-gp activity / Rho123 accumulation (Example 9) (P-gp): showed P-pg inhibition

Source: patent US10322097B2, “Treatment of subjects with multidrug-resistant cancer” (priority 2015, dated 2019)
